One test deals with treated subjects. To be noted: subcutaneous administration; cited from earlier work.
In test [1] the test system is ovariectomy-induced osteopenic rats and monkeys. To be noted: ovariectomy-induced osteopenic rats and monkeys (Doyle 2013a; Doyle 2013b; Hattersley 2013); cited from earlier work.
The test system of the next test is rat femur fracture model. Nature of the test: Rat femur fracture model (fracture healing). The class given is in vivo. The source says:
Certain embodiments of the methods disclosed herein also include the use of the microprojection arrays as described herein in their various embodiments to accelerate fracture healing in a patient who has suffered one or more fractures and for which the fractures are not completely healed. Healing of bone fractures (eg long bone fractures) involves endochondral and intramembranous bone formation, which together form a callus that achieves union, stabilization, and gradual recovery of bone strength. […] Sixteen rats from each group were necropsied after 4 and 6 weeks of healing, with 12 fractured femurs per group used for micro-CT and biomechanical testing and the other 4 femurs used for micro-CT and histology.

[2] abbreviates: 25 ug/kg/d sc daily, week 4, P<0.05 vs VEH.

For “[Glu^22,25, Leu^23,28,31, Aib^29, Lys^26,30]hPTHrP(1-34)NH2 [abaloparatide]”, in the test on treated subjects, the “bone mineral density (BMD) and/or trabecular bone score (TBS) at the lumbar spine, total hip, and femoral neck” value is listed as “improve”. Further, in test [1], the bone loss entry is reported as “complete reversal of bone loss”. Also, the “callus stiffness, higher vs VEH (three-point bending)” value came out at 60% with rat femur fracture model (5 ug/kg/d sc daily, week 4, P<0.05 vs VEH); 112% with rat femur fracture model (5 ug/kg/d sc daily, week 6, P<0.05 vs VEH); 96% in the test with rat femur fracture model (setting [2]). The “callus peak load, higher vs VEH” value in the test with rat femur fracture model (setting [2]) was found to be 77%. Further, in the test on rat femur fracture model (5 and 25 ug/kg/d, week 4), the “callus area (histomorphometry) vs VEH” value is “significantly greater callus area”. Moreover, in the test on rat femur fracture model (5 and 25 ug/kg/d, weeks 4 and 6), the “micro-CT of fracture calluses vs VEH” value is “significantly greater callus bone volume, bone volume fraction, and BMC”. For the same substance, the “histologic scoring of cortical bridging across the fracture gap vs VEH” value in the test on rat femur fracture model (5 or 25 ug/kg/d, week 4) was “significantly greater bridging”. For the same substance, the “callus peak load vs VEH” value in the test with rat femur fracture model (both abaloparatide groups (5 and 25 ug/kg/d), week 6) was “numerically higher”.

The record behind these values is patent US20210369816A1, “FORMULATIONS OF ABALOPARATIDE, TRANSDERMAL PATCHES THEREOF, AND USES THEREOF” (priority 2016, published 2021).
